These results are taken from patent publication US10590143B2, “Herbicidally active (alkynyl-phenyl)-substituted cyclic dione compounds and derivatives thereof” (Syngenta Limited, priority 2013, dated 2020).

Structures are written as SMILES.

What all share (assay): Biological Example 2 glasshouse assay for herbicidal activity
Common to all, as to format: in vivo

The subject of test [1] is Zea mays (ZEAMX, corn, maize, e.g. volunteer corn). The conditions noted are these: post-emergence, 14 or 15 DAA. On the procedure:
(§1) Seeds of a variety of monocotyledonous and dicotyledonous test plants are sown in standard soil in pots. The plants are cultivated for one day (for pre-emergence) or for about 12 days (range=10-13 days) (for post-emergence) under controlled conditions in a glasshouse (warm climate species at 24/18° C., cool climate species at 20/16° C., both at day/night; 16 hours light; 65% humidity).
(§2) An “instant formulation”, known as the “IF50”, containing 50 g/litre (i.e. 5% w/v) of the “technical” (i.e. unformulated) active ingredient is prepared by dissolving the active ingredient in a mixture of organic solvents and emulsifier, details of which are provided in the Table below. This IF50 is then mixed with a small, variable amount of acetone to aid dissolution, before addition of a 0.2% v/v aqueous solution of the adjuvant X-77 (which is a mixture of alkyl aryl polyoxyethylene glycols and free fatty acids in isopropanol, CAS Registry number 11097-66-8), as the aqueous diluent, to form an aqueous spray solution which contains a predetermined concentration of the active ingredient (which varies depending on the application rate of the active ingredient to the plants) and 0.2% v/v of the adjuvant X-77. This aqueous spray solution is then sprayed onto the plants, after one day's cultivation (for pre-emergence) or after about 12 days' cultivation (for post-emergence).
(§3) The test plants are then grown on, in a glasshouse (greenhouse) under controlled conditions (at either 24/18° C. or 20/16° C. (day/night) as mentioned above; 16 hours light; 65% humidity) and are watered twice daily. Either 14 or 15 days after application of the herbicide (14 or 15 DAA) (for post-emergence), or 20 days after application of the herbicide (20 DAA) (for pre-emergence), the test plants are evaluated visually, and an assessed percentage phytotoxicity score is given for each herbicidal application on each plant species (where 100%=total damage to plant; 0%=no damage to plant).
(§4) Some of the typical test plants are as follows: • Cool climate crop plants: Triticum aestivum (TRZAW, winter wheat), Brassica napus (BRSNN, rape, also called oilseed rape or rapeseed), Beta vulgaris (BEAVA, sugarbeet). • Warm climate crop plants: Glycine max (GLXMA, soybean). • Cool climate (“cool season”) grassy monocotyledonous weeds: Alopecurus myosuroides (ALOMY), Avena fatua (AVEFA), Lolium perenne (LOLPE), Poa annua (POAAN), Bromus tectorum (BROTE). • Warm climate (“warm season”) grassy monocotyledonous weeds: Setaria faberi (SETFA), SORVU (Sorghum bicolor (L.) Moench ssp. Bicolor, or Sorghum vulgare Pers.), Digitaria sanguinalis (DIGSA), Echinochloa crus-galli (ECHCG), Brachiaria plantaginea (BRAPL); Zea mays (ZEAMX, corn, maize, e.g. volunteer corn).

Test [2] relates to Alopecurus myosuroides (ALOMY). To be noted: post-emergence, 360 h, 14 or 15 DAA, 0.2% v/v X-77, read-out: percentage phytotoxicity ALOMY. On the procedure: as §1, §2, §3, §4
Test [3] concerns Echinochloa crus-galli (ECHCG). To be noted: post-emergence, 14 or 15 DAA; for percentage phytotoxicity ECHCG: 0.2% v/v X-77. On the procedure: as §1, §2, §3, §4
Test [4] concerns Triticum aestivum (TRZAW, winter wheat). The conditions noted are these: post-emergence, 360 h, 14 or 15 DAA, 0.2% v/v X-77, read-out: percentage phytotoxicity TRZAW. As for the experimental part: as §1, §2, §3, §4
Test [5] has as its system Brachiaria plantaginea (BRAPL). The conditions noted are these: Urochloa plantaginea, post-emergence, 360 h, 14 or 15 DAA, 0.2% v/v X-77, read-out: percentage phytotoxicity BRAPL. As for the experimental part: as §1, §2, §3, §4
The subject of test [6] is Digitaria sanguinalis (DIGSA). The conditions noted are these: post-emergence, 360 h, 14 or 15 DAA, 0.2% v/v X-77, read-out: percentage phytotoxicity DIGSA. As for the experimental part:
as §1, §2, §3, §4

The test system of another test is Setaria faberi (SETFA). The conditions noted are these: post-emergence, 360 h, 14 or 15 DAA, 0.2% v/v X-77, read-out: percentage phytotoxicity SETFA. As for the experimental part:
as §1, §2, §3, §4

The next test deals with Lolium perenne (LOLPE). The conditions noted are these: post-emergence, 14 or 15 DAA. As for the experimental part: as §1, §2, §3, §4
Test [7] concerns SORVU (Sorghum bicolor (L.) Moench ssp. Bicolor, or Sorghum vulgare Pers.). To be noted: post-emergence, 360 h, 14 or 15 DAA, 0.2% v/v X-77, read-out: percentage phytotoxicity SORVU. As for the experimental part:
as §1, §2, §3, §4

Test [8] concerns Beta vulgaris (BEAVA, sugarbeet). The conditions noted are these: post-emergence, 360 h, 250 g/ha, 14 or 15 DAA, 0.2% v/v X-77, read-out: percentage phytotoxicity BEAVA. As for the experimental part:
as §1, §2, §3, §4

For a further test, the system named is Avena fatua (AVEFA). To be noted: post-emergence, 360 h, 14 or 15 DAA, 0.2% v/v X-77, read-out: percentage phytotoxicity AVEFA. As for the experimental part: as §1, §2, §3, §4
Test [9] has as its system Brassica napus (BRSNN, rape). To be noted: post-emergence, 14 or 15 DAA, 0.2% v/v X-77. On the procedure: as §1, §2, §3, §4
For test [10], the system named is Glycine max (GLXMA, soybean). To be noted: post-emergence, 360 h, 250 g/ha, 14 or 15 DAA, 0.2% v/v X-77, read-out: percentage phytotoxicity GLXMA. As for the experimental part:
as §1, §2, §3, §4

Where [11] appears, read: Zea mays, 360 h, 250 g/ha, 0.2% v/v X-77, read-out: percentage phytotoxicity ZEAMX.
[12] abbreviates: Echinochloa crus-galli, 360 h, 250 g/ha, 0.2% v/v X-77, read-out: percentage phytotoxicity ECHCG.
Setting [13] is: Lolium perenne, 360 h, 250 g/ha, 0.2% v/v X-77, read-out: percentage phytotoxicity LOLPE.
[14] abbreviates: Brassica napus, 360 h, 250 g/ha, read-out: percentage phytotoxicity BRSNN.

`CC#Cc1cc(F)c(C2C(=O)C3CCC(C3)C2=O)c(OC)c1` (stereo not shown) [Compound A1, 3-(2-Fluoro-6-methoxy-4-prop-1-ynyl-phenyl)-bicyclo[3.2.1]octane-2,4-dione]: the pest or weed control at 30 g/ha in test [1] (Zea mays, 360 h, 30 g/ha, 0.2% v/v X-77, read-out: percentage phytotoxicity ZEAMX) was 90%; in test [2] (30 g/ha) it was 80%; in test [3] (Echinochloa crus-galli, 360 h, 30 g/ha, 0.2% v/v X-77, read-out: percentage phytotoxicity ECHCG), 100%; in [5] (30 g/ha), 90%; in test [6] (30 g/ha) it was 100%; with Setaria faberi (SETFA) (30 g/ha), 90%. The pest or weed control at 30 g/ha in the test on Lolium perenne (LOLPE) (Lolium perenne, 360 h, 30 g/ha, 0.2% v/v X-77, read-out: percentage phytotoxicity LOLPE) was determined as 90%; in test [7] (30 g/ha), 90%; with Avena fatua (AVEFA) (30 g/ha), 90%. The pest or weed control at 250 g/ha (in test [1] (setting [11]); in test [2]; in [3] (setting [12]); in test [5] (250 g/ha); in test [6]; in the test with Setaria faberi (SETFA)) was 100% in each case. Moreover, the pest or weed control at 250 g/ha (in the test with Lolium perenne (LOLPE) (setting [13]); in [7]; in the test on Avena fatua (AVEFA)) was 100% in each case. The “percentage phytotoxicity ZEAMX” value in test [1] (250 g/ha, 0.2% v/v X-77) worked out at 100%. The “percentage phytotoxicity ECHCG” value in test [3] (30 g/ha) and in [3] (250 g/ha) was 100% in each case. Besides, the plant injury at 30 g/ha turned out to be 70% in [4] (30 g/ha) and 40% in [9] (Brassica napus, 360 h, 30 g/ha, read-out: percentage phytotoxicity BRSNN). The plant injury at 250 g/ha in [4] was determined as 100%; in test [8], 30%; in test [9] (setting [14]), 80%. The “percentage phytotoxicity LOLPE” value in the test on Lolium perenne (LOLPE) (250 g/ha, 0.2% v/v X-77) is recorded as 100%. Besides, the “percentage phytotoxicity BRSNN” value in [9] (250 g/ha) is recorded as 80%.
Consider `CC#Cc1cc(F)c(C2C(=O)C3CCC(C)(C2=O)C3(C)C)c(OC)c1` (stereo not shown) [Compound A2], for which the pest or weed control at 250 g/ha in test [1] (setting [11]) was found to be 90%; in test [2], 60%; in [3] (setting [12]), 90%; in [6], 80%; with Setaria faberi (SETFA) it was 80%; in the test with Lolium perenne (LOLPE) (setting [13]) it was 0%. Further, the pest or weed control at 250 g/ha in test [7] is 90%; with Avena fatua (AVEFA) it was 0%. Further, the plant injury at 250 g/ha in test [10] came to 20%; in test [4], 0%; in test [8], 0%; in test [9] (setting [14]), 10%.
